≈ marks a conversion by molar mass, not a printed value.
Key:
Format in all cases: functional
SNB-19 [1] = test: Anticancer activity against Homo sapiens (human) SNB19 cells after 48 hr by SRB assay; settings: SNB-19, 48 h
HOP-92 = test: Anticancer activity against Homo sapiens (human) HOP92 cells after 48 hr by SRB assay; settings: HOP-92, 48 h
Candida albicans = test: Antimicrobial activity against Candida albicans ATCC2091 assessed as growth inhibition after 48 hr by two-fold serial dilution method; settings: ATCC2091, 48 h
UO-31 = test: Growth inhibition of Homo sapiens (human) UO31 cells at 10 uM after 48 hr by SRB assay; settings: UO-31, 48 h, read-out: GI
HL-60(TB) = test: Growth inhibition of Homo sapiens (human) HL-60(TB) cells at 10 uM after 48 hr by SRB assay; settings: HL-60, 48 h, read-out: GI
Malme-3M = test: Anticancer activity against Homo sapiens (human) MALME-3M cells after 48 hr by SRB assay
UACC-257 = test: Anticancer activity against Homo sapiens (human) UACC257 cells after 48 hr by SRB assay; settings: UACC-257, 48 h
LOX IMVI = test: Growth inhibition of Homo sapiens (human) LOXIMVI cells at 10 uM after 48 hr by SRB assay; settings: read-out: GI
SW-620 = test: Growth inhibition of Homo sapiens (human) SW620 cells at 10 uM after 48 hr by SRB assay; settings: SW-620, 48 h, read-out: GI
T47D = test: Growth inhibition of Homo sapiens (human) T47D cells at 10 uM after 48 hr by SRB assay; settings: read-out: GI
SNB-19 [2] = test: Growth inhibition of Homo sapiens (human) SNB19 cells at 10 uM after 48 hr by SRB assay; settings: SNB-19, 48 h, read-out: GI
NCI-H522 = test: Growth inhibition of Homo sapiens (human) NCI-H522 cells at 10 uM after 48 hr by SRB assay; settings: NCI-H522, 48 h, read-out: GI
MCF7 = test: Growth inhibition of Homo sapiens (human) MCF7 cells at 10 uM after 48 hr by SRB assay; settings: MCF7, 48 h, read-out: GI
UACC-62 = test: Anticancer activity against Homo sapiens (human) UACC62 cells after 48 hr by SRB assay; settings: UACC-62, 48 h
DU-145 = test: Anticancer activity against Homo sapiens (human) DU145 cells after 48 hr by SRB assay; settings: DU-145, 48 h
Hs-578T [3] = test: Growth inhibition of Homo sapiens (human) Hs 578T cells at 10 uM after 48 hr by SRB assay; settings: read-out: GI
MDA-MB-231 = test: Anticancer activity against Homo sapiens (human) MDA-MB-231/ATCC cells after 48 hr by SRB assay; settings: MDA-MB-231, 48 h
RPMI-8226 = test: Anticancer activity against Homo sapiens (human) RPMI8226 cells after 48 hr by SRB assay; settings: RPMI-8226, 48 h
A498 = test: Growth inhibition of Homo sapiens (human) A498 cells at 10 uM after 48 hr by SRB assay; settings: A498, 48 h, read-out: GI
HCT-116 = test: Anticancer activity against Homo sapiens (human) HCT116 cells after 48 hr by SRB assay; settings: HCT-116, 48 h
COLO 205 = test: Anticancer activity against Homo sapiens (human) COLO205 cells after 48 hr by SRB assay; settings: COLO 205, 48 h
SF-539 = test: Anticancer activity against Homo sapiens (human) SF539 cells after 48 hr by SRB assay; settings: SF-539, 48 h
SF-295 = test: Anticancer activity against Homo sapiens (human) SF295 cells after 48 hr by SRB assay; settings: SF-295, 48 h
HCC 2998 = test: Growth inhibition of Homo sapiens (human) HCC2998 cells at 10 uM after 48 hr by SRB assay; settings: HCC 2998, 48 h, read-out: GI
PC-3 = test: Anticancer activity against Homo sapiens (human) PC3 cells after 48 hr by SRB assay; settings: PC-3, 48 h
K562 = test: Anticancer activity against Homo sapiens (human) K562 cells after 48 hr by SRB assay; settings: K562, 48 h
Hs-578T [4] = test: Anticancer activity against Homo sapiens (human) Hs 578T cells after 48 hr by SRB assay
HOP-62 = test: Anticancer activity against Homo sapiens (human) HOP62 cells after 48 hr by SRB assay; settings: HOP-62, 48 h
SK-MEL-2 = test: Growth inhibition of Homo sapiens (human) SK-MEL-2 cells at 10 uM after 48 hr by SRB assay; settings: SK-MEL-2, 48 h, read-out: GI
NCI-H460 = test: Growth inhibition of Homo sapiens (human) NCI-H460 cells at 10 uM after 48 hr by SRB assay; settings: NCI-H460, 48 h, read-out: GI
NCI-H322M = test: Anticancer activity against Homo sapiens (human) NCI-H322M cells after 48 hr by SRB assay
SK-MEL-5 = test: Growth inhibition of Homo sapiens (human) SK-MEL-5 cells at 10 uM after 48 hr by SRB assay; settings: SK-MEL-5, 48 h, read-out: GI
Escherichia coli = test: Antimicrobial activity against Escherichia coli ATCC8739 assessed as diameter of growth inhibition zone at 1 mg/ml after 24 hr by agar cup diffusion method; settings: ATCC8739, 24 h, read-out: IZ
[5] = read-out: LC50 (the source's name)

SMILES: Cc1c(C(N)=O)sc2nc(C)n(/N=c3\scc(-c4ccccc4)n3Cc3ccccc3)c(=O)c12
- GI50 (SNB-19 [1]): 4.8 µM
- TGI (SNB-19 [1]): > 100 µM
- CC50 (SNB-19 [1]; [5]): > 100 µM
- GI50 (HOP-92): 1340 nM
- TGI (HOP-92): 5.33 µM
- CC50 (HOP-92; [5]): > 100 µM
- MIC (Candida albicans): 125 µg/mL (≈ 256 µM)
- inhibition of growth at 10 µM (UO-31): 95.9%
- inhibition of growth at 10 µM (HL-60(TB)): 136%
- GI50 (Malme-3M): 2180 nM
- TGI (Malme-3M): > 100 µM
- CC50 (Malme-3M; [5]): > 100 µM
- GI50 (UACC-257): 3.56 µM
- TGI (UACC-257): 24.3 µM
- CC50 (UACC-257; [5]): > 100 µM
- inhibition of growth at 10 µM (LOX IMVI): 79.4%
- inhibition of growth at 10 µM (SW-620): 87.5%
- inhibition of growth at 10 µM (T47D): 65.3%
- inhibition of growth at 10 µM (SNB-19 [2]): 70.6%
- inhibition of growth at 10 µM (NCI-H522): 75.1%
- inhibition of growth at 10 µM (MCF7): 82.7%
- GI50 (UACC-62): 4.26 µM
- TGI (UACC-62): 83.2 µM
- CC50 (UACC-62; [5]): > 100 µM
- GI50 (DU-145): 3.9 µM
- TGI (DU-145): > 100 µM
- CC50 (DU-145; [5]): > 100 µM
- inhibition of growth at 10 µM (Hs-578T [3]): 115%
- GI50 (MDA-MB-231): 3.28 µM
- TGI (MDA-MB-231): 8.41 µM
- CC50 (MDA-MB-231; [5]): > 100 µM
- GI50 (RPMI-8226): 13.9 µM
- TGI (RPMI-8226): > 100 µM
- CC50 (RPMI-8226; [5]): > 100 µM
- inhibition of growth at 10 µM (A498): 99.3%
- GI50 (HCT-116): 2130 nM
- TGI (HCT-116): 10 µM
- CC50 (HCT-116; [5]): > 100 µM
- GI50 (COLO 205): 2390 nM
- TGI (COLO 205): 7.32 µM
- CC50 (COLO 205; [5]): > 100 µM
- GI50 (SF-539): 4.02 µM
- TGI (SF-539): > 100 µM
- CC50 (SF-539; [5]): > 100 µM
- GI50 (SF-295): 2930 nM
- TGI (SF-295): > 100 µM
- CC50 (SF-295; [5]): > 100 µM
- inhibition of growth at 10 µM (HCC 2998): 42.9%
- GI50 (PC-3): 2150 nM
- TGI (PC-3): 8.31 µM
- CC50 (PC-3; [5]): > 100 µM
- GI50 (K562): 8.89 µM
- TGI (K562): > 100 µM
- CC50 (K562; [5]): > 100 µM
- GI50 (Hs-578T [4]): 3.85 µM
- TGI (Hs-578T [4]): > 100 µM
- CC50 (Hs-578T [4]; [5]): > 100 µM
- GI50 (HOP-62): 2820 nM
- TGI (HOP-62): 9.47 µM
- CC50 (HOP-62; [5]): > 100 µM
- inhibition of growth at 10 µM (SK-MEL-2): 90%
- inhibition of growth at 10 µM (NCI-H460): 92.5%
- GI50 (NCI-H322M): 3.71 µM
- TGI (NCI-H322M): > 100 µM
- CC50 (NCI-H322M; [5]): > 100 µM
- inhibition of growth at 10 µM (SK-MEL-5): 92.6%
- zone of inhibition at 1000 µg/mL (Escherichia coli): 15 mm
